From patent US20240239861A1, “GLUCAGON-RECEPTOR SELECTIVE POLYPEPTIDES AND METHODS OF USE THEREOF” (i2O Therapeutics, Inc., priority 2016, published 2024)
Where a SMILES comes first, the peptide text is derived from it.

Legend:
[1] = Stability in water or saline at 37° C. and room temperature, 30 days, LC/MS and HPLC purity; assay type: physicochemical
From the text: Samples were withdrawn at a regular interval for 30 days and analyzed by LC/MS and HPLC for determination of purity and mass of the degradation product.

[2] = in vivo; conditions: male, rat
[3] = Solubility in water or saline at room temperature, visual inspection; assay type: physicochemical; conditions: Solubility in water mg/ml
From the text: Samples were visually inspected for clarity of the sample, any appearance of turbidity or haziness.

[4] = target: human GLP-1R (Homo sapiens, UniProt P43220); experiment: Peptide-receptor mediated cAMP accumulation (LANCE Ultra cAMP) in CHO-K1 cells transfected with human GLP-1R; assay type: cell-based
[5] = FIGURE 2A
[6] = hGLP1 pEC50 (cAMP mean (n = 3): 11 point curve starting at 1 nM, Table 3)
[7] = hGLP1 pEC50 (cAMP) mean (n = 3): 11 point curve starting at 1 nM, Table 2B

Sequence of human GLP-1R (P43220 24-463): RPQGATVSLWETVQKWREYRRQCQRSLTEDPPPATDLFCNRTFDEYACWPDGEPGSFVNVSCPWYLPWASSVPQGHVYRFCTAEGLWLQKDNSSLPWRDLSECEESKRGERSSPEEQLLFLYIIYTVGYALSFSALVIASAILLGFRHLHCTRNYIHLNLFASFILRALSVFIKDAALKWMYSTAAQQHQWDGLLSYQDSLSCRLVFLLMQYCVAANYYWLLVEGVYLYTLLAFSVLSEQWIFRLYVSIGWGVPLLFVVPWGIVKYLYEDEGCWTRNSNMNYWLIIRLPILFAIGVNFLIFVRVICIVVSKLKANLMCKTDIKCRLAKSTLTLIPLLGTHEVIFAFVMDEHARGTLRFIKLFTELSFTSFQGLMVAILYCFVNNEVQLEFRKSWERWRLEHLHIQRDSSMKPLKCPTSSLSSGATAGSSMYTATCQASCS

## CC(C)C[C@H](NC(=O)[C@H](Cc1ccc(O)cc1)NC(=O)[C@H](CCCCN)NC(=O)[C@H](CO)NC(=O)[C@H](Cc1ccc(O)cc1)NC(=O)[C@H](CC(=O)O)NC(=O)[C@H](CO)NC(=O)[C@@H](NC(=O)[C@H](Cc1ccccc1)NC(=O)[C@@H](NC(=O)CNC(=O)[C@H](Cc1c[nH]cn1)NC(=O)[C@H](CO)NC(=O)[C@@H](N)Cc1ccc(O)cc1)[C@@H](C)O)[C@@H](C)O)C(=O)N[C@@H](CC(=O)O)C(=O)N[C@@H](C)C(=O)N[C@@H](C)C(=O)N[C@@H](CCCNC(=N)N)C(=O)N[C@@H](C)C(=O)N[C@@H](CCC(N)=O)C(=O)N[C@@H](CCC(=O)O)C(=O)N[C@@H](Cc1ccccc1)C(=O)N[C@H](C(=O)N[C@@H](CCCCN)C(=O)N[C@@H](Cc1c[nH]c2ccccc12)C(=O)N[C@@H](CC(C)C)C(=O)N[C@@H](CCC(=O)O)C(=O)N[C@@H](CC(=O)O)C(=O)N[C@@H](CCC(=O)O)C(=O)N1CCC[C@H]1C(=O)N[C@@H](CO)C(=O)N[C@@H](CO)C(=O)NCC(=O)N[C@@H](C)C(=O)N1CCC[C@H]1C(=O)N1CCC[C@H]1C(=O)N1CCC[C@H]1C(=O)N[C@@H](CO)C(=O)O)C(C)C [Compound A97] (H-YSHGTFTSDYSKYLDAARAQEFVKWLEDEPSSGAPPPS-OH; N-terminus assumed)
[1]
  Stability 1 mg/ml in water at 37 degC: >59%
[2]
  clearance: 18.9 mL/min/kg
[3]
  solubility: > 200 mg/mL
[4]; [6]
  EC50: > 1 nM
[4]; [7]
  EC50: > 1 nM

## CC(C)C[C@H](NC(=O)[C@H](Cc1c[nH]c2ccccc12)NC(=O)[C@H](CCCCN)NC(=O)[C@@H](NC(=O)[C@H](Cc1ccccc1)NC(=O)[C@H](CCC(=O)O)NC(=O)[C@H](CCC(N)=O)NC(=O)[C@H](C)NC(=O)[C@H](CCCNC(=N)N)NC(=O)[C@H](CCCCN)NC(=O)[C@H](CO)NC(=O)[C@H](CCC(=O)O)NC(=O)[C@H](CC(C)C)NC(=O)[C@H](CC(C)C)NC(=O)[C@H](CCCNC(=N)N)NC(=O)[C@@H](NC(=O)[C@H](Cc1ccc(O)cc1)NC(=O)[C@H](CC(=O)O)NC(=O)[C@H](CO)NC(=O)[C@@H](NC(=O)[C@H](Cc1ccccc1)NC(=O)[C@@H](NC(=O)CNC(=O)[C@H](Cc1c[nH]cn1)NC(=O)[C@H](CO)NC(=O)[C@@H](N)Cc1ccc(O)cc1)[C@@H](C)O)[C@@H](C)O)[C@@H](C)O)C(C)C)C(=O)N[C@@H](CCC(=O)O)C(=O)N[C@@H](CC(=O)O)C(=O)N[C@@H](CCC(=O)O)C(=O)N1CCC[C@H]1C(=O)N[C@@H](CO)C(=O)N[C@@H](CO)C(=O)NCC(=O)N[C@@H](C)C(=O)N1CCC[C@H]1C(=O)N1CCC[C@H]1C(=O)N1CCC[C@H]1C(=O)N[C@@H](CO)C(=O)O [Compound A98] (H-YSHGTFTSDYTRLLESKRAQEFVKWLEDEPSSGAPPPS-OH; N-terminus assumed)
[1]
  Stability 1 mg/ml in water at 37 degC: >75%
[5]
  CL: 51.5 ± 13.4 mL/min/kg
[3]
  solubility: > 200 mg/mL
[4]; [6]
  EC50: > 1 nM
[4]; [7]
  EC50: > 1 nM

## CC(C)C[C@H](NC(=O)[C@H](Cc1ccc(O)cc1)NC(=O)[C@H](CCCCN)NC(=O)[C@H](CO)NC(=O)[C@H](Cc1ccc(O)cc1)NC(=O)[C@H](CC(=O)O)NC(=O)[C@H](CO)NC(=O)[C@@H](NC(=O)[C@H](Cc1ccccc1)NC(=O)[C@@H](NC(=O)CNC(=O)[C@H](Cc1c[nH]cn1)NC(=O)[C@H](CO)NC(=O)[C@@H](N)Cc1ccc(O)cc1)[C@@H](C)O)[C@@H](C)O)C(=O)N[C@@H](CC(=O)O)C(=O)NC(C)(C)C(=O)N[C@@H](CCCCN)C(=O)N[C@@H](CCCNC(=N)N)C(=O)N[C@@H](C)C(=O)N[C@@H](CCC(N)=O)C(=O)N[C@@H](CCC(=O)O)C(=O)N[C@@H](Cc1ccccc1)C(=O)N[C@H](C(=O)NC(C)(C)C(=O)N[C@@H](Cc1c[nH]c2ccccc12)C(=O)N[C@@H](CC(C)C)C(=O)N[C@@H](CCC(=O)O)C(=O)N[C@@H](CC(=O)O)C(=O)N[C@@H](CCC(=O)O)C(=O)O)C(C)C [Compound A100]
[1]
  Stability 1 mg/ml in water at 37 degC: >69%
[5]
  CL: 120 ± 39 mL/min/kg
[3]
  solubility: > 200 mg/mL
[4]; [6]
  EC50: > 1 nM
[4]; [7]
  EC50: > 1 nM
